Test results: patent US10463690B2, “Method and compositions for treating cancerous tumors” (priority 2016, dated 2019)

What was measured:
[1] = type: in vivo, Mice (SK1IPYMT 4913×SK1FVB)
Source text: The purpose was to see how and where the test product spread throughout the body. Mice were euthanized so that internal cavity could be examined. Organs were cut in half for inspection of the extent of saturation.

tumor = conditions: animal experiments; cited from earlier work
[2] = placed on rats in a 60% of the body 3rd degree burn; cited from earlier work

## CN(C)c1ccc2nc3ccc(=[N+](C)C)cc-3sc2c1 [methylene blue, Methylene blue]
[1]; kidney injection
  distribution of dye after injection into kidney: The entire kidney got saturated and the dye got into the urine but did not spread throughout the body
[1]; liver injection
  distribution of dye after injection into liver: The dye did not spread past the injection site in the liver

## NCCCC(N)(C(=O)O)C(F)F (stereo not shown) [DFMO, difuoromethylornithine]
tumor
  effect on tumor growth: reduced tumor growth

## [O][Cl+][O-] [ClO2, Chlorine dioxide]
[2]
  toxicity: no toxicity was indicated
